Assay results published in PubChem BioAssay AID1259407 (Chemical Carcinogenesis Research Information System (CCRIS), 2018).
Active and inactive are the calls of the source. The rule behind the calls is not given here.

System: CCRIS mutagenicity, Ames/micronucleus/aberration tests
Assay: CCRIS mutagenicity studies
[1] = Test System: AMES SALMONELLA TYPHIMURIUM, Strain/Indicator: TA100, Metabolic Activation: NONE, Method: PREINCUBATION
[2] = Test System: AMES SALMONELLA TYPHIMURIUM, Strain/Indicator: TA98, Metabolic Activation: NONE, Method: PREINCUBATION
[3] = Test System: AMES SALMONELLA TYPHIMURIUM, Strain/Indicator: TA1535, Metabolic Activation: NONE, Method: PREINCUBATION
[4] = Test System: AMES SALMONELLA TYPHIMURIUM, Strain/Indicator: TA97, Metabolic Activation: NONE, Method: PREINCUBATION

Which mutagenic call (Test System: AMES SALMONELLA TYPHIMURIUM, Strain/Indicator: TA98, Metabolic Activation: S-9, Method: STANDARD PLATE) does the source give for `Oc1ccc(Oc2c(Cl)cc(Cl)cc2Cl)cc1` here?
The mutagenic call was “inactive; negative”.

What about the mutagenic call (Test System: AMES SALMONELLA TYPHIMURIUM, Strain/Indicator: TA100, Metabolic Activation: S-9, Method: STANDARD PLATE) of the same compound?
The mutagenic call was “inactive; negative”.

What about the mutagenic call (Test System: AMES SALMONELLA TYPHIMURIUM, Strain/Indicator: YG1021, Metabolic Activation: S-9, Method: STANDARD PLATE) of the same compound?
The mutagenic call was “inactive; negative”.

And the mutagenic call (Test System: AMES SALMONELLA TYPHIMURIUM, Strain/Indicator: YG1024, Metabolic Activation: S-9, Method: STANDARD PLATE)?
The mutagenic call was “inactive; negative”.

And the mutagenic call (Test System: AMES SALMONELLA TYPHIMURIUM, Strain/Indicator: YG1026, Metabolic Activation: S-9, Method: STANDARD PLATE)?
Its mutagenic call is “inactive; negative”.

What about the mutagenic call (Test System: AMES SALMONELLA TYPHIMURIUM, Strain/Indicator: YG1029, Metabolic Activation: S-9, Method: STANDARD PLATE) of the same compound?
Its mutagenic call is “inactive; negative”.

How did the mutagenic call [1] turn out when `O=CCO` was run?
The mutagenic call was “inactive; negative”.

Which mutagenic call (End Point: IN VITRO CHROMOSOMAL ABERRATIONS, Test System: CHL CELLS, Metabolic Activation: NONE) does the source give for `COS(=O)(=O)OC` here?
Its mutagenic call is “active; positive (structural changes)”.

And the mutagenic call (End Point: IN VITRO CHROMOSOMAL ABERRATIONS, Test System: CHL CELLS, Metabolic Activation: RAT, LIVER, S-9, SODIUM PHENOBARBITAL AND 5,6-BENZOFLAVONE)?
The mutagenic call was “active; positive (structural changes)”.

And the mutagenic call (End Point: In vitro micronucleus, Test System: Chinese Hamster Ovary (CHO-WBL) cells, Metabolic Activation: None)?
The mutagenic call was “active; positive (p<0.01)”.

And the mutagenic call (Test System: AMES SALMONELLA TYPHIMURIUM, Strain/Indicator: TA98, Metabolic Activation: NONE)?
Its mutagenic call is “active; positive”.

What about the mutagenic call [2] of the same compound?
The mutagenic call was “active; positive”.

What about the mutagenic call (Test System: AMES SALMONELLA TYPHIMURIUM, Strain/Indicator: TA98, Metabolic Activation: S-9) of the same compound?
The mutagenic call was “active; positive”.

And the mutagenic call (Test System: AMES SALMONELLA TYPHIMURIUM, Strain/Indicator: TA100, Metabolic Activation: NONE)?
Its mutagenic call is “active; positive”.

What about the mutagenic call [1] of the same compound?
The mutagenic call was “active; positive”.

What about the mutagenic call (Test System: AMES SALMONELLA TYPHIMURIUM, Strain/Indicator: TA100, Metabolic Activation: S-9) of the same compound?
Its mutagenic call is “active; positive”.

And the mutagenic call [3]?
Its mutagenic call is “active; positive”.

What about the mutagenic call (Test System: AMES SALMONELLA TYPHIMURIUM, Strain/Indicator: TA1537, Metabolic Activation: NONE, Method: PREINCUBATION) of the same compound?
Its mutagenic call is “active; positive”.

What about the mutagenic call (Test System: AMES SALMONELLA TYPHIMURIUM, Strain/Indicator: TA1538, Metabolic Activation: NONE, Method: PREINCUBATION) of the same compound?
Its mutagenic call is “active; positive”.

What about the mutagenic call (Test System: CHINESE HAMSTER V-79, Strain/Indicator: V-79/6-THIOGUANINE, Metabolic Activation: NONE, Method: FLASK ASSAY) of the same compound?
The mutagenic call was “inactive; negative”.

And the mutagenic call (Test System: CHO/HGPRT, Strain/Indicator: CHO-K1-BH4, Metabolic Activation: NONE, Method: STANDARD PLATE)?
The mutagenic call was “active; positive”.

How did the mutagenic call (Test System: AMES SALMONELLA TYPHIMURIUM, Strain/Indicator: TA98, Metabolic Activation: NONE, Method: STANDARD PLATE) turn out when `CN(C)c1ccc(/C=C/C(=O)c2ccccc2)cc1` was run?
The mutagenic call was “inactive; negative”.

And the mutagenic call (Test System: AMES SALMONELLA TYPHIMURIUM, Strain/Indicator: TA98, Metabolic Activation: RAT, LIVER, S-9, AROCLOR 1254, Method: STANDARD PLATE)?
Its mutagenic call is “inactive; negative”.

What about the mutagenic call (Test System: AMES SALMONELLA TYPHIMURIUM, Strain/Indicator: TA100, Metabolic Activation: NONE, Method: STANDARD PLATE) of the same compound?
The mutagenic call was “inactive; negative”.

And the mutagenic call (Test System: AMES SALMONELLA TYPHIMURIUM, Strain/Indicator: TA100, Metabolic Activation: RAT, LIVER, S-9, AROCLOR 1254, Method: STANDARD PLATE)?
The mutagenic call was “inactive; negative”.

With `C=CCOC(=O)CCCCC` as the compound, how does the mutagenic call [4] read?
Its mutagenic call is “inactive; negative”.

What about the mutagenic call (Test System: AMES SALMONELLA TYPHIMURIUM, Strain/Indicator: TA97, Metabolic Activation: RAT, LIVER, S-9, AROCLOR 1254, Method: PREINCUBATION) of the same compound?
The mutagenic call was “inactive; negative”.

What about the mutagenic call (Test System: AMES SALMONELLA TYPHIMURIUM, Strain/Indicator: TA102, Metabolic Activation: NONE, Method: PREINCUBATION) of the same compound?
The mutagenic call was “inactive; negative”.

What about the mutagenic call (Test System: AMES SALMONELLA TYPHIMURIUM, Strain/Indicator: TA102, Metabolic Activation: RAT, LIVER, S-9, AROCLOR 1254, Method: PREINCUBATION) of the same compound?
The mutagenic call was “inactive; negative”.

Which results are given for `CC(C)(COCC1CO1)COCC1CO1` (stereo unspecified)?
mutagenic call (Test System: AMES SALMONELLA TYPHIMURIUM, Strain/Indicator: TA100, Metabolic Activation: HAMSTER, LIVER, S-9, AROCLOR 1254 (10%), Method: PREINCUBATION): active; positive; mutagenic call [1]: active; positive; mutagenic call (Test System: AMES SALMONELLA TYPHIMURIUM, Strain/Indicator: TA100, Metabolic Activation: RAT, LIVER, S-9, AROCLOR 1254 (10%), Method: PREINCUBATION): active; positive; mutagenic call (Test System: AMES SALMONELLA TYPHIMURIUM, Strain/Indicator: TA1535, Metabolic Activation: HAMSTER, LIVER, S-9, AROCLOR 1254 (10%), Method: PREINCUBATION): active; positive; mutagenic call [3]: active; positive; mutagenic call (Test System: AMES SALMONELLA TYPHIMURIUM, Strain/Indicator: TA1535, Metabolic Activation: RAT, LIVER, S-9, AROCLOR 1254 (10%), Method: PREINCUBATION): active; positive

Which mutagenic call [2] does the source give for `O.O.O=C([O-])C(=O)[O-].O=C([O-])C(=O)[O-].[K+].[K+].[Pt+2]` here?
Its mutagenic call is “inactive; negative”.

What about the mutagenic call (Test System: AMES SALMONELLA TYPHIMURIUM, Strain/Indicator: TA98, Metabolic Activation: RAT, LIVER, S-9, AROCLOR 1254, Method: PREINCUBATION) of the same compound?
The mutagenic call was “inactive; negative”.

What about the mutagenic call [1] of the same compound?
The mutagenic call was “inactive; negative”.

What about the mutagenic call (Test System: AMES SALMONELLA TYPHIMURIUM, Strain/Indicator: TA100, Metabolic Activation: RAT, LIVER, S-9, AROCLOR 1254, Method: PREINCUBATION) of the same compound?
Its mutagenic call is “inactive; negative”.

For `CCCCC(CC)COC(=O)c1cccc(C(=O)OCC(CC)CCCC)c1` (stereo unspecified), which mutagenic call (Test System: AMES SALMONELLA TYPHIMURIUM, Strain/Indicator: TA97, Metabolic Activation: HAMSTER, LIVER, S-9, AROCLOR 1254 (10 OR 30%), Method: PREINCUBATION) is on record?
Its mutagenic call is “inactive; negative”.

What about the mutagenic call [4] of the same compound?
Its mutagenic call is “inactive; negative”.

What about the mutagenic call (Test System: AMES SALMONELLA TYPHIMURIUM, Strain/Indicator: TA97, Metabolic Activation: RAT, LIVER, S-9, AROCLOR 1254 (10 OR 30%), Method: PREINCUBATION) of the same compound?
The mutagenic call was “inactive; negative”.

And the mutagenic call (Test System: AMES SALMONELLA TYPHIMURIUM, Strain/Indicator: TA98, Metabolic Activation: HAMSTER, LIVER, S-9, AROCLOR 1254 (10 OR 30%), Method: PREINCUBATION)?
The mutagenic call was “inactive; negative”.

What about the mutagenic call [2] of the same compound?
Its mutagenic call is “inactive; negative”.

And the mutagenic call (Test System: AMES SALMONELLA TYPHIMURIUM, Strain/Indicator: TA98, Metabolic Activation: RAT, LIVER, S-9, AROCLOR 1254 (10 OR 30%), Method: PREINCUBATION)?
Its mutagenic call is “inactive; negative”.

And the mutagenic call (Test System: AMES SALMONELLA TYPHIMURIUM, Strain/Indicator: TA100, Metabolic Activation: HAMSTER, LIVER, S-9, AROCLOR 1254 (10 OR 30%), Method: PREINCUBATION)?
The mutagenic call was “inactive; negative”.

What about the mutagenic call [1] of the same compound?
The mutagenic call was “inactive; negative”.

And the mutagenic call (Test System: AMES SALMONELLA TYPHIMURIUM, Strain/Indicator: TA100, Metabolic Activation: RAT, LIVER, S-9, AROCLOR 1254 (10 OR 30%), Method: PREINCUBATION)?
The mutagenic call was “inactive; negative”.

What about the mutagenic call (Test System: AMES SALMONELLA TYPHIMURIUM, Strain/Indicator: TA1535, Metabolic Activation: HAMSTER, LIVER, S-9, AROCLOR 1254 (10 OR 30%), Method: PREINCUBATION) of the same compound?
The mutagenic call was “inactive; negative”.

What about the mutagenic call [3] of the same compound?
The mutagenic call was “inactive; negative”.

And the mutagenic call (Test System: AMES SALMONELLA TYPHIMURIUM, Strain/Indicator: TA1535, Metabolic Activation: RAT, LIVER, S-9, AROCLOR 1254 (10 OR 30%), Method: PREINCUBATION)?
The mutagenic call was “inactive; negative”.
